The record followed here is ChEMBL document CHEMBL3576790, “Novel Small Molecule Inhibitors of Activated Thrombin Activatable Fibrinolysis Inhibitor (TAFIa) from Natural Product Anabaenopeptin” (J Med Chem, 2015).

*1 amine or outer side, *2 acyl side, *3 side chain or, on linkers, in order; H or OH if unused. Where a SMILES comes first, the peptide text is derived from it. Bridges are numbered along the chain shown (N, C = ends). [ ]: non-standard residue; d: D form. hTyr = N[C@@H](CCc1ccc(O)cc1)C(=O)O; NMeA = CN[C@@H](C)C(=O)O; CO = O=C([*:1])[*:2]

For assay [1], the target named is T1, Carboxypeptidase B2 (Homo sapiens, UniProt Q96IY4).
T1 sequence (Q96IY4 whole entry): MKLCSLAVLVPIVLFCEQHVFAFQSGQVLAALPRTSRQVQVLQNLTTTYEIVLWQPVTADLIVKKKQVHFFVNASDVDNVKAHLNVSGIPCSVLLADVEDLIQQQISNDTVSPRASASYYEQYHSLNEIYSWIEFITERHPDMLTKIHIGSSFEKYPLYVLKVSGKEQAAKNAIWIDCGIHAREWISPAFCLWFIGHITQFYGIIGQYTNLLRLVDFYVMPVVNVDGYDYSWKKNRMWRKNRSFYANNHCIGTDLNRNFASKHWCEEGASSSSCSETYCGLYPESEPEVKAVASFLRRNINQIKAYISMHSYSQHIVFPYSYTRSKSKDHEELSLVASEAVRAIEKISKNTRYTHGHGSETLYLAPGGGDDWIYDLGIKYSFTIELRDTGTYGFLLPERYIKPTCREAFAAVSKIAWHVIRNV
Description: Inhibition of human activated TAFI incubated for 15 mins by microtiter plate reader based assay

In assay [2] the target is T2, Carboxypeptidase A1 (Homo sapiens, UniProt P15085).
T2 sequence (P15085 whole entry): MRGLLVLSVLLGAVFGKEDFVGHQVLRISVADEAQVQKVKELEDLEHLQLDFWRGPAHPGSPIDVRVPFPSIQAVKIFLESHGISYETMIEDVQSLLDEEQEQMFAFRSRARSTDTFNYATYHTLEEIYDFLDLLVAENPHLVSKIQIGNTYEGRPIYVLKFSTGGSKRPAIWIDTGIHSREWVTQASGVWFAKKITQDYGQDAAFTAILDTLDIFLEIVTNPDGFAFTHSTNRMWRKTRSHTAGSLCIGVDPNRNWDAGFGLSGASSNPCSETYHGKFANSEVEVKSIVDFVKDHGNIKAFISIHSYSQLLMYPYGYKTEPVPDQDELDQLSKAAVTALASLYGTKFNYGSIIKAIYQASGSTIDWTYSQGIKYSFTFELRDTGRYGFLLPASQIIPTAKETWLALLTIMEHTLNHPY
The assay is described as follows: Inhibition of CPA (unknown origin).

The target in assay [3] is T3, Carboxypeptidase N catalytic chain (Homo sapiens, UniProt P15169).
T3 sequence (P15169 whole entry): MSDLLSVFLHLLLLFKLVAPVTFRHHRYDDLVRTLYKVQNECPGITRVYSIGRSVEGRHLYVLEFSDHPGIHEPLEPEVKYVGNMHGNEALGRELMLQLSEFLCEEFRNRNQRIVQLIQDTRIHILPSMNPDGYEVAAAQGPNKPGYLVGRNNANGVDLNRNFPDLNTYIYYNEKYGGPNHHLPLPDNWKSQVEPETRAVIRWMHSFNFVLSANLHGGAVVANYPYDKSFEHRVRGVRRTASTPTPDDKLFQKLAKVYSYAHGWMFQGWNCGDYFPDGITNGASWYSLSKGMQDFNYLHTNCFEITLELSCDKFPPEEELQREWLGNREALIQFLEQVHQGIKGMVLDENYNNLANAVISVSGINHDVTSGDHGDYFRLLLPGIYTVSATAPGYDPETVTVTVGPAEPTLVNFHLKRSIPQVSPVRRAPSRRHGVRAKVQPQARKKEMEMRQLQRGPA
The assay is described as follows: Inhibition of CPN (unknown origin).

Assay [4] addresses Coagulation factor X (Homo sapiens, UniProt P00742). The assay is described as follows: Inhibition of factor10a (unknown origin).
In assay [5] the target is T4, Coagulation factor VII (Homo sapiens, UniProt P08709).
T4 sequence (P08709 whole entry): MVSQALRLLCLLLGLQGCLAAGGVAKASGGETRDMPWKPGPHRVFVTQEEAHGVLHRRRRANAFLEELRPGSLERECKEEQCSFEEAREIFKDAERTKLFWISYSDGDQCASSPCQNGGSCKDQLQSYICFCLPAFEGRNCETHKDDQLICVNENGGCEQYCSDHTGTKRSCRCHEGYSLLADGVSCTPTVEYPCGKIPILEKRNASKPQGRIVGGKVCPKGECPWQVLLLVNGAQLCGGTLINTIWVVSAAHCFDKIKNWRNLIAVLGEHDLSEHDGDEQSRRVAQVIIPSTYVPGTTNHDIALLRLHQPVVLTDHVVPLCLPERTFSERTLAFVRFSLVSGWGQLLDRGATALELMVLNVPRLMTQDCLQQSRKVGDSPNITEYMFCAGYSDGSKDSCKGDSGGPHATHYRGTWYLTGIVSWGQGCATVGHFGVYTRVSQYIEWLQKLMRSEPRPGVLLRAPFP
The assay is described as follows: Inhibition of factor7a (unknown origin).

The target in assay [6] is Prothrombin (Homo sapiens, UniProt P00734). The assay is described as follows: Inhibition of factor2a (unknown origin).
For assay [7], the target named is Coagulation factor XI (Homo sapiens, UniProt P03951). Description: Inhibition of factor11a (unknown origin).
Sequence of Coagulation factor XI (P03951 19-387 limits assumed): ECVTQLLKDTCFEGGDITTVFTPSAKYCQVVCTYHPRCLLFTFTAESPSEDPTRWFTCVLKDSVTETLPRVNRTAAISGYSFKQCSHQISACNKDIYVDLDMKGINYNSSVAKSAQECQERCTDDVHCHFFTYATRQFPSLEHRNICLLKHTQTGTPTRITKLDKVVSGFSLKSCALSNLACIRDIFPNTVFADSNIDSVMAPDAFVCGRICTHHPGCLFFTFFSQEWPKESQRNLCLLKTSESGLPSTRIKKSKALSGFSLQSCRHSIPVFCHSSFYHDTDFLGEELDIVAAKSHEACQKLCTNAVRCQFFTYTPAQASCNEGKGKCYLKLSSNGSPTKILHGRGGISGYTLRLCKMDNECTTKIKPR
Sequence of Coagulation factor XI (P03951 388-625 limits assumed): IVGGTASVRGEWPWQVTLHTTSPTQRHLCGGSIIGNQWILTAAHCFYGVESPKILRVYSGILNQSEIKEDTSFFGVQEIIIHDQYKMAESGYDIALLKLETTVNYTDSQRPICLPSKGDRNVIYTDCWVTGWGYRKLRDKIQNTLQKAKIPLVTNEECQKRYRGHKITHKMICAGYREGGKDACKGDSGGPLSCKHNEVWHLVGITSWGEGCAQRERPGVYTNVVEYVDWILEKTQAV

Sequence of Coagulation factor X (P00742 41-179 limits assumed): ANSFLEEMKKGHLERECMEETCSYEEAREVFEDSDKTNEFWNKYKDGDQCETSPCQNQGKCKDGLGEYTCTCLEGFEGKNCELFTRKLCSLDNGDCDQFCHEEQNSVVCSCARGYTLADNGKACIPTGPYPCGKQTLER
Sequence of Coagulation factor X (P00742 235-488 limits assumed): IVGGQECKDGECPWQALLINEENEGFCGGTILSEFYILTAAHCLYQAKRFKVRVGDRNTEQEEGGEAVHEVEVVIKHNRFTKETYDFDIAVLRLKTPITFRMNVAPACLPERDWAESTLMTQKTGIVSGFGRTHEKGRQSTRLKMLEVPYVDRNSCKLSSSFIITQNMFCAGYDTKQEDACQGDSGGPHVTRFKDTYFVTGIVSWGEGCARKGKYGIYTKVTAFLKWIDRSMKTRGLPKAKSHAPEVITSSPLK

Broadly, the IC50 is the point on the concentration scale where inhibition reaches its midpoint. In turn, `CC12CCC(C(NC(=O)[C@@H](CC3CCCCC3)NC(=O)N[C@@H](Cc3ccc(N)nc3)C(N)=O)C1)C2(C)C` (stereo partly specified) returned an IC50 in assay [1] of 570 nM. In other words, the sub-micromolar range. The same measure, in the same setting: for `NCCCC[C@H](NC(=O)N[C@H](CC1CCCCC1)C(=O)NCC(c1ccccc1)c1ccccc1)C(=O)O` the value was 120 nM. As to `CC(C)[C@@H]1NC(=O)[C@H](NC(=O)N[C@@H](CCCCN)C(=O)O)CCCCNC(=O)[C@H](Cc2ccccc2)NC(=O)[C@H](C)N(C)C(=O)[C@H](CCc2ccc(O)cc2)NC1=O`, the half-maximal inhibitory concentration (IC50) is above 100000 nM in assay [2]; 5700 nM in assay [3]; above 100000 nM in assay [4]; above 100000 nM in assay [5]; 6000 nM in assay [6]; 12000 nM in assay [7].

With `CC(C)C[C@@H](NC(=O)N[C@@H](CCCCN)C(=O)O)C(=O)NC1CC2(C)CCC1C2(C)C` (single isomer, unassigned; (+)), the IC50 in assay [1] was determined as 57 nM. This lies in the double-digit nanomolar range. The same measure, in the same setting: the figure for `CC12CCC(C(NC(=O)[C@H](NC(=O)N[C@@H](CCCCN)C(=O)O)C3CCCCC3)C1)C2(C)C` (stereo partly specified) is 1000 nM; for `CCC[C@@H](NC(=O)N[C@@H](CCCCN)C(=O)O)C(=O)NC1CC2(C)CCC1C2(C)C` (stereo partly specified) it is 15 nM. Regarding `CC[C@H](C)[C@@H]1NC(=O)[C@H](NC(=O)N[C@@H](CCCNC(=N)N)C(=O)O)CCCCNC(=O)[C@H](Cc2ccccc2)NC(=O)[C@H](C)N(C)C(=O)[C@H](CCc2ccc(O)cc2)NC1=O` [ANABAENOPEPTIN F] ({Arg-CO}-[dK]I[hTyr][NMeA]F; lactam 1-C), the IC50 in assay [4] amounted to 38000 nM; in assay [5], 35000 nM; in assay [6], 350 nM; in assay [7] it was 3900 nM. In assay [1], `CC(C)(NC(=O)N[C@@H](CCCCN)C(=O)O)C(=O)NC1CC2(C)CCC1C2(C)C` (stereo partly specified) came in with an IC50 of 6100 nM. Still for that read-out and setting: for `CC12CCC(C(NC(=O)[C@@H](CC3CCCCC3)NC(=O)N[C@H](Cc3ccc(N)nc3)C(=O)O)C1)C2(C)C` (stereo partly specified) the value was 250 nM. Same read-out and setting: the figure for `CC12CCC(C(NC(=O)[C@@H](Cc3ccccc3)NC(=O)N[C@@H](CCCCN)C(=O)O)C1)C2(C)C` (single isomer, unassigned; (+)) is 15 nM; for `CC12CCC(C(NC(=O)[C@@H](CC3CCCCC3)NC(=O)N[C@@H](Cc3ccc(N)nc3)C(=O)O)C1)C2(C)C` (stereo partly specified) it is 1 nM.

On to `CC(C)[C@@H]1NC(=O)[C@H](NC(=O)N[C@@H](CCCNC(=N)N)C(=O)O)CCCCNC(=O)[C@H](Cc2ccccc2)NC(=O)[C@H](C)N(C)C(=O)[C@H](CCc2ccc(O)cc2)NC1=O` [ANABAENOPEPTIN B] ({Arg-CO}-[dK]V[hTyr][NMeA]F; lactam 1-C), for which the IC50 in assay [4] was above 100000 nM; in assay [5] it was above 100000 nM; in assay [6], 1600 nM; in assay [7], 24000 nM. With `CC12CCC(C(NC(=O)[C@@H](CC3CCCCC3)NC(=O)N[C@H](C#N)Cc3ccc(N)nc3)C1)C2(C)C` (stereo partly specified), it took 54000 nM to reach half-maximal inhibition in assay [1] (IC50). The same measure, in the same setting: for `CC12CCC(C(NC(=O)[C@@H](CC3CCCCC3)NC(=O)N[C@@H](CS(=O)(=O)CCN)C(=O)O)C1)C2(C)C` (stereo partly specified) the value was 38 nM. On the same count and under the same terms, the figure for `CC(C)CCNC(=O)[C@@H](CCCCNC(=O)OCc1ccccc1)NC(=O)N[C@@H](CCCCN)C(=O)O` is 1400 nM.
